Eight compounds from ChEMBL document CHEMBL4433229, “Development of novel macrocyclic small molecules that target CTG trinucleotide repeats” (Bioorg Med Chem, 2019) can be followed below.

Calls of active or inactive are those of the source. No cut-off for these calls is given here.

Data set [1] has as its system HeLa. Put plainly: Cytotoxicity against human HeLa cells assessed as reduction in cell viability at 6 uM after 72 hrs by SRB assay relative to control. Format: cell-based. (In general: Sulforhodamine B stains cellular protein and so reports cell mass.)
The nature of data set [2]: Binding affinity to d(CTG) C-C DNA sequence (unknown origin) assessed as equilibrium dissociation constant by isothermal titration method. To be noted: for Kd: read-out: Kd(app).
The nature of data set [3]: Binding affinity to d(CTG) U-U DNA sequence (unknown origin) assessed as equilibrium dissociation constant by isothermal titration method.
Data set [4] in a line: Inhibition of d(CTG.CAG)74 DNA sequence (unknown origin) transcription at 6 uM pre-incubated for 3 hrs followed by addition of T7 polymerase and measured after 1.5 hrs by PAGE analysis.
Data set [5] in a line: Selectivity ratio of cytotoxicity of compound to cytotoxicity of NC for human HeLa cells. Format: cell-based.
Data set [6] is described as follows: Binding affinity to d(CTG) A-A DNA sequence (unknown origin) assessed as equilibrium dissociation constant by isothermal titration method. On the technique in general: ITC needs no label: the signal is the heat of the interaction.
The nature of data set [7]: Binding affinity to d(CTG) T-T DNA sequence (unknown origin) assessed as equilibrium dissociation constant by isothermal titration method. To be noted: read-out: Kd(app).
Data set [8] deals with DNA. The data set is described as follows: Inhibition of random DNA sequence (unknown origin) transcription at 100 uM pre-incubated for 3 hrs followed by addition of T7 polymerase and measured after 1.5 hrs by PAGE analysis. Format: nucleic-acid assay.
Data set [9] has as its system HeLa. Put plainly: Cytotoxicity against human HeLa cells assessed as reduction in cell viability at 0.2 to 100 uM after 72 hrs by SRB assay relative to control. Format: cell-based.
Data set [10] deals with HeLa. The data set is described as follows: Cytotoxicity against human HeLa cells assessed as reduction in cell viability after 72 hrs by SRB assay relative to control. Format: cell-based.
Data set [11] in a line: Inhibition of d(CTG.CAG)74 DNA sequence (unknown origin) transcription at 25 uM pre-incubated for 3 hrs followed by addition of T7 polymerase and measured after 1.5 hrs by PAGE analysis.
The nature of data set [12]: Potency index, ratio of transcription inhibition of NC to transcription inhibition of compounds for d(CTG.CAG)74 DNA sequence by PAGE analysis.
In data set [13] the test system is DNA. Put plainly: Inhibition of random DNA sequence (unknown origin) transcription at 25 uM pre-incubated for 3 hrs followed by addition of T7 polymerase and measured after 1.5 hrs by PAGE analysis. Format: nucleic-acid assay.
Data set [14] concerns DNA. The data set is described as follows: Inhibition of random DNA sequence (unknown origin) transcription at 0 to 50 uM pre-incubated for 3 hrs followed by addition of T7 polymerase and measured after 1.5 hrs by PAGE analysis. Format: nucleic-acid assay.
The nature of data set [15]: Binding affinity to d(CTG) duplex DNA sequence (unknown origin) assessed as equilibrium dissociation constant by isothermal titration method.
A short description of data set [16]: Selectivity ratio of transcription inhibition of random DNA sequence (unknown origin) to transcription inhibition of d(CTG.CAG)74 DNA sequence (unknown origin) by PAGE analysis.
Data set [17] can be described thus: Binding affinity to d(CTG) T-T 3 DNA sequence (unknown origin) assessed as equilibrium dissociation constant by isothermal titration method.
A short description of data set [18]: Binding affinity to d(CTG) T-T DNA sequence (unknown origin) assessed as mole fraction of compound required to show 2:1 stoichiometry for compound-DNA complex at 50 uM by Job's plot analysis.
Data set [19] can be described thus: Binding affinity to d(CTG) T-T 2 DNA sequence (unknown origin) assessed as equilibrium dissociation constant by isothermal titration method.
The test system of data set [20] is HeLa. Put plainly: Cytotoxicity against human HeLa cells assessed as reduction in cell viability at 25 uM after 72 hrs by SRB assay relative to control. Format: cell-based.
Data set [21] is described as follows: Binding affinity to d(CTG) T-T DNA sequence (unknown origin) assessed as mole fraction of compound required to show 1:1 stoichiometry for compound-DNA complex at 50 uM by Job's plot analysis.
Data set [22] is described as follows: Binding affinity to d(CTG) T-T DNA sequence (unknown origin) assessed as mole fraction of compound required to show 1.3:1 stoichiometry for compound-DNA complex at 50 uM by Job's plot analysis.
Data set [23] can be described thus: Displacement of ethidium from d(CTG)2 DNA sequence (unknown origin) and measured by fluorescence method relative to NC.
Data set [24] is described as follows: Binding affinity to d(CTG)2 DNA sequence (unknown origin) assessed as equilibrium dissociation constant by isothermal titration method.
Data set [25] in a line: Inhibition of MBNL1 binding to r(CUG)12 RNA sequence (unknown origin) assessed as inhibition constant by gel electrophoresis mobility shift assay.
A short description of data set [26]: Binding affinity to r(CUG)4 RNA sequence (unknown origin) assessed as equilibrium dissociation constant by isothermal titration method.
For data set [27], the system named is DNA. The data set is described as follows: Inhibition of random DNA sequence (unknown origin) transcription at 50 uM pre-incubated for 3 hrs followed by addition of T7 polymerase and measured after 1.5 hrs by PAGE analysis. Format: nucleic-acid assay.
Data set [28] can be described thus: Binding affinity to r(CUG)12 RNA sequence (unknown origin) assessed as equilibrium dissociation constant by isothermal titration method.

As a reminder, the inhibition is the percentage by which the read-out fell short of the control. A lower inhibition goes with a weak effect. The IC50 is the concentration that inhibits the measured activity by half. Consider `Nc1nc2nc(n1)NCCCNC(=O)c1cccc3c(c4ccccc4nc13)NCCCCN2`, for which the Activity is reported as less than 10% in the data set on HeLa [1] and “Toxic” in the data set on HeLa [9]. The “Kd(app)” value in [2], in data set [3], in [6] and in data set [15] was “inactive” in each case. For the same compound, the inhibition was 45% in data set [4]; less than 20% in the data set on DNA [8]; 85% in [11]; -0% in the data set on DNA [13]; less than 10% in the data set with DNA [14]. Also, in [5], the selectivity ratio stood at 10. The Kd in data set [7] came to 19.8 µM. Moreover, the IC50 in the data set on HeLa [10] was 20 µM. In addition, the Selectivity ratio in data set [12] was 4.
`Nc1nc2nc(n1)NCCCCNc1c3ccccc3nc3c(cccc13)C(=O)NCCCCN2`: the Selectivity ratio in data set [16] was determined as 3. Moreover, the selectivity ratio in data set [5] came to 10. The Activity entry in the data set with HeLa [9] is “Toxic”.
Turning to `Nc1nc2nc(n1)NCCCNc1c3ccccc3nc3c(cccc13)C(=O)NCCCN2`, the “Kd(app)” value in data set [2], in [3], in data set [6] and in data set [15] was “inactive” in each case. Besides, the values for the Selectivity ratio in data set [16] and in data set [12] were 3 and 4, respectively. Also, the Kd was 15.1 µM in data set [17], 18.1 µM in data set [7] and 19.8 µM in data set [19]. Besides, the selectivity ratio in [5] was 10. Further, the Activity (mole fraction) was 0.68 in data set [18], 0.5 in [21] and 0.57 in [22]. Also, the inhibition in the data set on DNA [8] is 45%; in [11] it was 60%. The Activity result in the data set with HeLa [20] is reported as “Non-Toxic”. Also, the outcome in data set [23] was Active.
By Ki is commonly meant a dissociation constant, usually derived from enzyme kinetics or from competition with a known ligand. Consider `COc1ccc2nc3cc(Cl)ccc3c(NCCCCNc3nc(N)nc(N)n3)c2c1`, for which the Kd in data set [24] and in data set [26] was 0.3 to 0.4 µM in each case. Also, the Ki in data set [25] was found to be 6 µM.
In the case of `CNC(=O)c1cccc2c(NCCCCNc3nc(N)nc(N)n3)c3ccccc3nc12`, the Kd in data set [2] came to 159 µM; in [3] (read-out: Kd(app)) it was 17.9 µM; in data set [7], 5.8 µM; in data set [15] (read-out: Kd(app)), 69 µM. Moreover, the Selectivity ratio in data set [16] amounted to 3. For the same compound, the inhibition amounted to 45% in the data set with DNA [27] and 35% in data set [11].
For `N=C(NCCCCNc1nc(N)nc(N)n1)c1ccc(C(=N)NCCCCNc2nc(N)nc(N)n2)cc1`, the Ki in data set [28] and in data set [25] was 8 µM each time.
With `Nc1nc2nc(n1)NCCCCCNc1c3ccccc3nc3c(cccc13)C(=O)NCCCCCN2`, the selectivity ratio in [5] stood at 10. In the data set with HeLa [9], the Activity result is recorded as “Toxic”.
In the case of `Nc1nc2nc(n1)NCCCNc1c3ccccc3nc3c(cccc13)C(=O)NCCCCN2`, the Kd in [2] was determined as 404 µM; in data set [7], 34.9 µM. In addition, the Selectivity ratio in [16] stood at 3; in data set [12], 4. Further, the “Kd(app)” value in [3], in data set [6] and in [15] was “inactive” each time. The selectivity ratio in data set [5] was 10. The IC50 in the data set with HeLa [10] is more than 100 µM. The figures for the inhibition (in the data set with DNA [27]; in data set [11]) were 45% and 60%, respectively.
